Test results reported in ChEMBL document CHEMBL1201862, “PubChem BioAssay data set” (2004).
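In this assay, cells in 96-well plates receive the compound at five concentrations for 48 hours. Endpoints are linearly interpolated between the surrounding concentrations. GI50 is the concentration that inhibits growth by half.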 Calls of active or inactive are those of the source. Rule as the data show it: active = GI50 up to about 1.1 µM and inactive = higher. Where a SMILES comes first, the peptide text is derived from it. Bridges are numbered along the chain shown (N, C = ends). [ ]: non-standard residue; d: D form. The star is where a group is joined. ξ: configuration not given here. PhAc = O=C(Cc1ccccc1)*; ξP = O=C(O)C1CCCN1

Key:
Test in all cases: inhibition of tumour cell growth, NCI panel, 48 h
[1] = tested on: SF-295
[2] = tested on: RPMI-8226
[3] = tested on: UACC-62
[4] = tested on: NCI-H522
[5] = tested on: Hs-578T
[6] = tested on: OVCAR-4
[7] = tested on: NCI-H460
[8] = tested on: T47D
[9] = tested on: K562
[10] = tested on: IGROV-1
[11] = tested on: TK-10
[12] = tested on: SK-MEL-5
[13] = tested on: A498
[14] = tested on: SF-539
[15] = tested on: NCI/ADR-RES
[16] = tested on: KM12
[17] = tested on: CAKI-1
[18] = tested on: HCT-15
[19] = tested on: HCC 2998
[20] = tested on: HOP-92

| Structure (SMILES) | GI50 [1] | GI50 [2] | GI50 [3] | GI50 [4] | GI50 [5] | GI50 [6] | GI50 [7] | GI50 [8] | GI50 [9] | GI50 [10] | GI50 [11] | GI50 [12] | GI50 [13] | GI50 [14] | GI50 [15] | GI50 [16] | GI50 [17] | GI50 [18] | GI50 [19] | GI50 [20] |
| --- | --- | --- | --- | --- | --- | --- | --- | --- | --- | --- | --- | --- | --- | --- | --- | --- | --- | --- | --- | --- |
| COc1ccc(N2C(=O)C3c4[nH]c5ccccc5c4C4CCCCCCCCCC4C3C2=O)cc1 (centres undefined) | > 10 µM (inactive) | > 10 µM (inactive) | > 10 µM (inactive) | > 10 µM (inactive) | > 10 µM (inactive) | > 10 µM (inactive) | > 10 µM (inactive) | > 10 µM (inactive) | > 10 µM (inactive) | > 10 µM (inactive) | > 10 µM (inactive) | > 10 µM (inactive) | > 10 µM (inactive) | 7.28 µM (inactive) | > 10 µM (inactive) | > 10 µM (inactive) | > 10 µM (inactive) | > 10 µM | > 10 µM (inactive) |  |
| Clc1ccc(CSC2=NCCN2)cc1Cl | 36.8 µM (inactive) | 6.75 µM (inactive) | 15.9 µM (inactive) | 4.5 µM (inactive) | 19.8 µM (inactive) | 11.6 µM (inactive) | 16.1 µM (inactive) | 7.19 µM (inactive) | 13.5 µM (inactive) | 18.9 µM (inactive) | 16.7 µM (inactive) | 12.7 µM (inactive) | 21.3 µM (inactive) |  | 20.1 µM (inactive) | 16.9 µM (inactive) | 11.2 µM (inactive) | 15 µM | 15.2 µM (inactive) | 3.3 µM (inactive) |
| COC(=O)C1(C)CCc2c(ccc3ccccc23)C1=O (centres undefined) | 39.7 µM (inactive) | 23.2 µM (inactive) | 32.4 µM (inactive) | 24.9 µM (inactive) | 47.2 µM (inactive) |  | 40.5 µM (inactive) | 24.5 µM (inactive) | 52.4 µM (inactive) | 26.5 µM (inactive) | 31 µM (inactive) | 18.3 µM (inactive) | 32.7 µM (inactive) | 86.7 µM (inactive) | 34.8 µM (inactive) | 25.8 µM (inactive) | 16.1 µM (inactive) | 34.5 µM | 36.1 µM (inactive) | 45.4 µM (inactive) |
| O=C(Cc1ccccc1)N[C@@H]1COC(=O)C2CCCN2C(=O)[C@@H]2CCCN2C1=O (some centres undefined) (PhAc-[dS]-Pro-[ξP]; ester 1-C) | > 100 µM (inactive) |  | > 100 µM (inactive) |  | > 100 µM (inactive) | > 100 µM (inactive) | > 100 µM (inactive) | > 100 µM (inactive) |  | > 100 µM (inactive) | > 100 µM (inactive) | > 100 µM (inactive) | > 100 µM (inactive) | > 100 µM (inactive) | > 100 µM (inactive) | > 100 µM (inactive) | > 100 µM (inactive) | > 100 µM | > 100 µM (inactive) | > 100 µM (inactive) |
| C=CCOc1ccc(C(/N=N\c2ccc(Cl)cc2)=N/NC(=O)c2ccccc2)cc1OC | > 100 µM (inactive) |  | 23.8 µM (inactive) | 41.3 µM (inactive) | 73.1 µM (inactive) | 76.7 µM (inactive) | 36.1 µM (inactive) | 22 µM (inactive) |  | 43.8 µM (inactive) | > 100 µM (inactive) | 29.9 µM (inactive) | > 100 µM (inactive) |  | 72.4 µM (inactive) | 38.5 µM (inactive) | > 100 µM (inactive) | 80.7 µM | 39 µM (inactive) | 32.1 µM (inactive) |
| Cc1ccc(S(=O)(=O)N/N=C2/C3CC4CCC2C4C3)cc1 (centres undefined) | > 100 µM (inactive) | > 100 µM (inactive) | > 100 µM (inactive) | > 100 µM (inactive) | > 100 µM (inactive) | > 100 µM (inactive) | > 100 µM (inactive) | > 100 µM (inactive) |  | > 100 µM (inactive) | > 100 µM (inactive) | > 100 µM (inactive) | > 100 µM (inactive) | > 100 µM (inactive) | > 100 µM (inactive) | > 100 µM (inactive) | > 100 µM (inactive) | > 100 µM | > 100 µM (inactive) | > 100 µM (inactive) |
| C[C@]12C=CC(=O)C=C1CC[C@@H]1[C@@H]2CC[C@@]2(C)[C@H]1CC[C@]2(O)C(N)=O | > 100 µM (inactive) | > 100 µM (inactive) | > 100 µM (inactive) | > 100 µM (inactive) | > 100 µM (inactive) | > 100 µM (inactive) | > 100 µM (inactive) | > 100 µM (inactive) | > 100 µM (inactive) | > 100 µM (inactive) | > 100 µM (inactive) | > 100 µM (inactive) | > 100 µM (inactive) | > 100 µM (inactive) | > 100 µM (inactive) | > 100 µM (inactive) |  | > 100 µM | > 100 µM (inactive) | > 100 µM (inactive) |
